{"source": "patent US20190175554A1", "about": "“METHOD FOR TREATING PRURITUS AND/OR ITCH” (Neurim Pharmaceuticals (1991) Ltd., priority 2016, published 2019)", "key": {"[1]": {"system": "mice, formalin injected into the right hindpaw", "assay": "Formalin test, hindpaw licking time in mice", "assay_type": "in vivo, mouse", "conditions": "100 mg/kg intraperitoneally 30 min before formalin", "experimental": "The anti-pruritus activity of pyrone-indole compounds were assessed using this model.\nMethod. The noxious stimulus is an injection of dilute formalin under the skin of the dorsal surface of the right hindpaw. The response is the amount of time the animals spend licking the injected paw 5-10 minutes (early phase), or 20-30 minutes (late phase) after the injection of formalin. Mice (N=8 per group) were injected intraperitoneally with test compound (100 mg/kg), or morphine (4 mg/kg), or vehicle. Thirty minutes later, formalin (20 μl 2.5% in water) was injected by the subplantar route into the right hindpaw. Hindpaw licking time was recorded in consecutive 5 minute-intervals during the first 10 minutes (early phase), and from 15 to 35 minutes (late phase) after formalin injection."}, "[2]": {"target": "T1, hNav1.7 (Homo sapiens, UniProt Q15858)", "T1 construct": "expressed in transfected cells", "T1 sequence (Q15858 whole entry)": "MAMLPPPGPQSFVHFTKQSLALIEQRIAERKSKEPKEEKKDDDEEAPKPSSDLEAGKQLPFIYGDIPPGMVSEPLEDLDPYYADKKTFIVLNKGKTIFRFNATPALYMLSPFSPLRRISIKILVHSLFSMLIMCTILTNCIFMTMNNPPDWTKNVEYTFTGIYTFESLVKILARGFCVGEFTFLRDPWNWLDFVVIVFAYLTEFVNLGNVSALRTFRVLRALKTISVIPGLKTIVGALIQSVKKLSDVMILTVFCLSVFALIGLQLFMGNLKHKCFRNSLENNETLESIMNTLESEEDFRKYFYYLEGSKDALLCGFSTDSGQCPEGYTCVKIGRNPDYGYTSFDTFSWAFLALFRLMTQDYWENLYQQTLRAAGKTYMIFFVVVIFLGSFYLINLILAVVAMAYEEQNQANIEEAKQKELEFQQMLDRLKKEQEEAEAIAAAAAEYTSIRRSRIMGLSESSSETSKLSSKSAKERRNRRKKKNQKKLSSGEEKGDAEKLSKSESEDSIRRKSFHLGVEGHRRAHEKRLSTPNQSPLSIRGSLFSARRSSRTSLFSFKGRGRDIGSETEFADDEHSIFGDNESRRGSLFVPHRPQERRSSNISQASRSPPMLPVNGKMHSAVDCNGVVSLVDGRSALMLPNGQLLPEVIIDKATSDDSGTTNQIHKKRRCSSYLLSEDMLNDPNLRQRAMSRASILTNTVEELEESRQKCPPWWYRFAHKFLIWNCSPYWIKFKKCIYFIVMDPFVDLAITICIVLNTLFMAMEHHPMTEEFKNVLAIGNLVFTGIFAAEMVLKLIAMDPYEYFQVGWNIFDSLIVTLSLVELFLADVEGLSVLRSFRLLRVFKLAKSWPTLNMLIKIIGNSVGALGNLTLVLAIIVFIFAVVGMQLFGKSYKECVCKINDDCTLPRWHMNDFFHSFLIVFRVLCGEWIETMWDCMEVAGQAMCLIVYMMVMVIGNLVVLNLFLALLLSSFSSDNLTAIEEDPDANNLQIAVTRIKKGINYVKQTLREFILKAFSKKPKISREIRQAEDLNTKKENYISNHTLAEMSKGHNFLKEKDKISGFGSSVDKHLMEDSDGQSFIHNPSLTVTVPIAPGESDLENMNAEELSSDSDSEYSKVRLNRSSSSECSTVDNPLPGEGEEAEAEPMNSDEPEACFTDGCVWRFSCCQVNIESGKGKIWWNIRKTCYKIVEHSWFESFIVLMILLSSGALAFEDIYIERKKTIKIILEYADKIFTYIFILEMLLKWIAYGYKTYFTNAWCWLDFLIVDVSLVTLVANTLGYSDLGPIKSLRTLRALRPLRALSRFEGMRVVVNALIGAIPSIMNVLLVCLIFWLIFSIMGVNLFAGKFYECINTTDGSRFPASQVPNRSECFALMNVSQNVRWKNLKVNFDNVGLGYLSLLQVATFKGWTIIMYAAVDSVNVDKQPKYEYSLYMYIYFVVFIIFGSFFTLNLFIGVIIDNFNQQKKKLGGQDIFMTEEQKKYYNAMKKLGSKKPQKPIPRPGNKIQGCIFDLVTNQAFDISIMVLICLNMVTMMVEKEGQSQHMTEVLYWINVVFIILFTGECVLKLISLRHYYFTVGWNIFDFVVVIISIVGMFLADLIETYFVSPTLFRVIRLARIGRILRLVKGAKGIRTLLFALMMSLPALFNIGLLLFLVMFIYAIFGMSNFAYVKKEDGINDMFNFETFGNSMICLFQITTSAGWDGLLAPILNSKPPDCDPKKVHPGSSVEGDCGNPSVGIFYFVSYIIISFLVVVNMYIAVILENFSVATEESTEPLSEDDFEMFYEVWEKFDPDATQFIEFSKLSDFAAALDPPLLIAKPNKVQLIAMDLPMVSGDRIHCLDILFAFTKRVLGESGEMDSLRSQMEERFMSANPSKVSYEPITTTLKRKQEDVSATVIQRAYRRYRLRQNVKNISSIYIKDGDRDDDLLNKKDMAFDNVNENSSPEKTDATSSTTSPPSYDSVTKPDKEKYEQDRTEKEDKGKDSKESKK", "assay": "Block of hNav1.x channels expressed in mammalian cells, voltage protocol", "assay_type": "cell-based", "conditions": "blocking effects on hNav1.x channels, Table 3", "experimental": "Effects of N-[2-(1H-indol-3-yl)-ethyl]-comanilamide, N-[2-(5-methoxy-indol-3-yl)-ethyl]-comanilamide and 2-methyl-4-oxo-4H-pyran-3-yl [2-(5-methoxy-1H-indol-3-yl)ethyl]carbamate on Nav1.x Channels Expressed in Mammalian Cells\nMethod. A block of hNav1.x channels was measured using the stimulus voltage pattern shown in FIG. 1; voltage potentials are indicated in Table 2, below. The pulse pattern repeated twice: before and 5 minutes after N-[2-(1H-indol-3-yl)-ethyl]-comanilamide, N-[2-(5-methoxy-indol-3-yl)-ethyl]-comanilamide and 2-methyl-4-oxo-4H-pyran-3-yl[2-(5-methoxy-1H-indol-3-yl)ethyl]carbamate addition and peak current amplitudes at […] was measured (ITP1 and ITP2)."}, "[3]": {"target": "T2, TRPV1 (Homo sapiens, UniProt Q8NER1)", "T2 sequence (Q8NER1 whole entry, species assumed)": "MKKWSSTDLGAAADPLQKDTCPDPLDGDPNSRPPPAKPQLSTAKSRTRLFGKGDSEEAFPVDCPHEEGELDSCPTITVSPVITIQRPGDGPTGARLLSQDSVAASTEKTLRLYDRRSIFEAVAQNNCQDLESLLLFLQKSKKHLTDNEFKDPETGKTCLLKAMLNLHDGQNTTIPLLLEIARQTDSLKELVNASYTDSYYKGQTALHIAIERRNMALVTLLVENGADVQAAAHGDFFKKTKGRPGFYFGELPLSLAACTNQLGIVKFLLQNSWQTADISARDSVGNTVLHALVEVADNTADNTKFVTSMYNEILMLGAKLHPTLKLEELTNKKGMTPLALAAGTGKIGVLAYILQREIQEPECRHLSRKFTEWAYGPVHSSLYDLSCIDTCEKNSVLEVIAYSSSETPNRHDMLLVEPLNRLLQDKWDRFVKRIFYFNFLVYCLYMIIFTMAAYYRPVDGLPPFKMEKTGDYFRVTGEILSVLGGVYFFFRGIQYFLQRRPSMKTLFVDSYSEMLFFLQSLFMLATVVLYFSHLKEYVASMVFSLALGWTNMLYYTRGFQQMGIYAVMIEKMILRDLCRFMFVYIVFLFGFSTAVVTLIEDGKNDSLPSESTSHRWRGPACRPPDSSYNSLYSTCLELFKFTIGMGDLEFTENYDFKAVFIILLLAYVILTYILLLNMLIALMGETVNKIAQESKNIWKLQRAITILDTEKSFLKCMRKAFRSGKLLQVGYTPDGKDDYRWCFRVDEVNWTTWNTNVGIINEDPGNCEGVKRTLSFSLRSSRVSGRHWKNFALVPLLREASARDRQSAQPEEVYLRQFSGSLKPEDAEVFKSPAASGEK", "assay": "TRPV1 calcium influx assay", "assay_type": "cell-based", "conditions": "for inhibitory effect on TRPV1 mediated calcium influx (in words): 10 μM, significant = three or more SD from agonist mean (37.74% inhibition); for inhibition at 0.1 µM / inhibition at 0.5 µM / inhibition at 1 µM / inhibition at 5 µM / inhibition at 10 µM: read-out: Normalized % inhibition; for inhibition at 0.5 µM: Test conc 0.5 μM; for inhibition at 1 µM: Test conc 1 μM; for inhibition at 5 µM: Test conc 5 μM; for inhibition at 10 µM: Test conc 10 μM", "experimental": "Method. The ability of N-[2-(1H-indol-3-yl)-ethyl]-comanilamide, N-[2-(5-methoxy-indol-3-yl)-ethyl]-comanilamide and 2-methyl-4-oxo-4H-pyran-3-yl [2-(5-methoxy-1H-indol-3-yl)ethyl]carbamate to act as antagonists of TRPV1 was evaluated with a calcium influx assay. The signal elicited in the presence of the positive control agonist (0.1 μM capsaicin) was set to 100% and the signal in the presence of the antagonist (0.1 μM capsaicin+3 μM ruthenium red) was set to 0."}, "[4]": {"system": "young male subjects, UVB-irradiated skin", "assay": "UVB sunburn model in humans, cold pain threshold (CPT)", "assay_type": "in vivo, human", "experimental": "(§1) The anti-pruritus effect of N-[2-(1H-indol-3-yl)-ethyl]-comanilamide was tested using the UVB sunburn model (R. Rolke et al. (2006), Quantitative sensory testing in the German Research Network on neuropathic pain (DFNS): standardized protocol and reference values, Pain, 123, 231-243) used as an art-accepted surrogate model of itch (Andersen et al., Acta Derm Venereol. 2015; 95(7):771-7. Human surrogate models of histaminergic and non-histaminergic itch.).\n(§2) Twenty four young male subjects ([…]N-[2-(1H-indol-3-yl)-ethyl]-comanilamide in escalated doses (300 mg-900 mg) and 6 in the placebo group), were exposed to three times the minimal erythema dose (MED) of UVB light on an approximately 4×4 cm area on the upper part of the leg in the morning of Day (−1) pre-dose on Day 1 and 2.5 hours post—dose on the UVB-irradiated area.\n(§3) UVB irradiation causes skin inflammation which is noxious and elicits pronounced inflammation related temperature and mechanical hyperalgesia at the UVB-irradiated site. This hyperalgesia peaks at about 20-24 hours post irradiation after which it slowly subsides. Quantitative sensory testing (QST) assesses characteristic sensory patterns in pain and pruritus models.\n(§4) The UVB irradiated skin was obtained by irradiating the marked area (approximately 4×4 cm) of the skin of the upper part of the right leg by three times the MED as determined during the screening. This was done approximately 20 hours prior to dosing.\nCold pain thresholds (CPT) were determined. The mean threshold temperature of five consecutive measurements was calculated. All thresholds were obtained with ramped stimuli (1 C/s) that were terminated when the subject pressed a button."}, "[5]": {"system": "young male subjects, UVB-irradiated skin", "assay": "UVB sunburn model in humans, mechanical detection threshold (MDT) to von Frey hairs", "assay_type": "in vivo, human", "conditions": "baseline Day (−1) before the sunburn; for MDT feel sensation, Post sunburn - Change from Baseline: pre-dose", "experimental": "as §1, §2, §3, §4\nMechanical detection threshold (MDT) to von Frey hairs was assessed by using a standardized set of modified von Frey hairs (Optihair; Marstock Nervtest, Marburg, Germany) exerting forces between 0.25 and 512 mN (rounded tip, 0.5 mm in diameter). Thresholds were determined by the method of limits with the geometric mean of a series of 5 ascending and descending stimulus intensities."}, "[6]": {"target": "T2, TRPV1", "assay": "TRPV1 calcium influx assay", "assay_type": "cell-based"}, "[7]": {"conditions": "Test conc 0.1 μM, vs 0.1 μM capsaicin"}, "[8]": {"conditions": "read-out: Normalized % inhibition"}}, "note": "Values joined by “and” are separate entries in the source; they are usually repeats but may differ in a detail not shown here. Equal values may be shown once. Read-outs that look alike come from different tables or passages of the source."}
{"smiles": "O=C(NCCc1c[nH]c2ccccc12)c1cc(=O)cco1", "note": "[N-[2-(1H-indol-3-yl)-ethyl]-comanilamide]", "values": [{"measurement": "inhibition of the licking response, early phase", "setting": "[1]; 100 mg/kg", "value": "57% and 38%"}, {"measurement": "inhibition of the licking response, late phase", "setting": "[1]; 100 mg/kg", "value": "90% and 62%"}, {"measurement": "selectivity among hNav1.x channels (in words)", "setting": "[2]", "value": "preferential inhibition of Nav1.7 channels"}, {"measurement": "inhibitory effect on TRPV1 mediated calcium influx (in words)", "setting": "[3]", "value": "significant inhibitory effect"}, {"measurement": "inhibition at 0.1 µM", "setting": "[3]; [7]", "value": 9.88, "unit": "%"}, {"measurement": "inhibition at 0.5 µM", "setting": "[3]; vs 0.1 μM capsaicin", "value": 2.44, "unit": "%"}, {"measurement": "inhibition at 1 µM", "setting": "[3]; vs 0.1 μM capsaicin", "value": 31.1, "unit": "%"}, {"measurement": "inhibition at 5 µM", "setting": "[3]; vs 0.1 μM capsaicin", "value": 26.1, "unit": "%"}, {"measurement": "inhibition at 10 µM", "setting": "[3]; vs 0.1 μM capsaicin", "value": 37.7, "unit": "%"}, {"measurement": "CPT, Post sunburn", "setting": "[4]; 600 mg group, after UVB, pre-dose", "value": 16.03, "unit": "°C"}, {"measurement": "CPT, Pre sunburn", "setting": "[4]; 600 mg group, before UVB and before dosing", "value": 5.55, "unit": "°C"}, {"measurement": "CPT, 2.5 h Post Drug Administration", "setting": "[4]; 600 mg, 2.5 h post dose", "value": 12.75, "unit": "°C"}, {"measurement": "time of peak response post dosing", "setting": "[4]; human UVB sunburn model, analgesic/anti-pruritus effects", "value": 2.5, "unit": "h"}, {"measurement": "MDT feel sensation, Post sunburn - Change from Baseline", "setting": "[5]; 300 mg group", "value": "−10.92", "unit": "mN"}, {"measurement": "MDT feel sensation, 2.5 h post Drug administration - Change from Baseline", "setting": "[5]; 300 mg", "value": "−12.13", "unit": "mN"}, {"measurement": "MDT feel sensation, Post sunburn - Change from Baseline", "setting": "[5]; 600 mg group", "value": "−3.52", "unit": "mN"}, {"measurement": "MDT feel sensation, 2.5 h post Drug administration - Change from Baseline", "setting": "[5]; 600 mg", "value": "−0.017", "unit": "mN"}, {"measurement": "MDT feel sensation, Post sunburn - Change from Baseline", "setting": "[5]; 900 mg group", "value": "−7.24", "unit": "mN"}, {"measurement": "MDT feel sensation, 2.5 h post Drug administration - Change from Baseline", "setting": "[5]; 900 mg", "value": 0.84, "unit": "mN"}, {"measurement": "Normalized % Activation", "setting": "[6]; Test conc 0.1 μM", "value": 23.07, "unit": "%"}, {"measurement": "Normalized % Activation", "setting": "[6]; Test conc 0.5 μM", "value": 11.93, "unit": "%"}, {"measurement": "Normalized % Activation", "setting": "[6]; Test conc 1 μM", "value": 10.51, "unit": "%"}, {"measurement": "Normalized % Activation", "setting": "[6]; Test conc 5 μM", "value": 8.71, "unit": "%"}, {"measurement": "Normalized % Activation", "setting": "[6]; Test conc 10 μM", "value": 10.13, "unit": "%"}]}
{"smiles": "COc1ccc2[nH]cc(CCNC(=O)Oc3c(C)occc3=O)c2c1", "note": "[2-methyl-4-oxo-4H-pyran-3-yl [2-(5-methoxy-1H-indol-3-yl)ethyl]carbamate]", "values": [{"measurement": "inhibition of the licking response, early phase", "setting": "[1]", "value": 54, "unit": "%"}, {"measurement": "inhibition of the licking response, late phase", "setting": "[1]", "value": 86, "unit": "%"}, {"measurement": "inhibitory effect on TRPV1 mediated calcium influx (in words)", "setting": "[3]", "value": "significant inhibitory effect"}, {"measurement": "inhibition at 0.1 µM", "setting": "[3]", "value": -1.78, "unit": "%"}, {"measurement": "Normalized % Activation", "setting": "[6]; Test conc 0.1 μM", "value": 12.65, "unit": "%"}, {"measurement": "Normalized % Activation", "setting": "[6]; Test conc 0.5 μM", "value": 9.58, "unit": "%"}, {"measurement": "Normalized % Activation", "setting": "[6]; Test conc 1 μM", "value": 12.16, "unit": "%"}, {"measurement": "Normalized % Activation", "setting": "[6]; Test conc 5 μM", "value": 5.75, "unit": "%"}, {"measurement": "Normalized % Activation", "setting": "[6]; Test conc 10 μM", "value": 12.26, "unit": "%"}, {"measurement": "inhibition at 0.5 µM", "setting": "[6]; [8]", "value": 23.6, "unit": "%"}, {"measurement": "inhibition at 1 µM", "setting": "[6]; [8]", "value": 45.1, "unit": "%"}, {"measurement": "inhibition at 5 µM", "setting": "[6]; [8]", "value": 44.6, "unit": "%"}, {"measurement": "inhibition at 10 µM", "setting": "[6]; [8]", "value": 41.5, "unit": "%"}]}
{"smiles": "COc1ccc2[nH]cc(CCNC(=O)c3cc(=O)cco3)c2c1", "note": "[N-[2-(5-methoxy-indol-3-yl)-ethyl]-comanilamide]", "values": [{"measurement": "inhibitory effect on TRPV1 mediated calcium influx (in words)", "setting": "[3]", "value": "significant inhibitory effect"}, {"measurement": "inhibition at 0.1 µM", "setting": "[3]; [7]", "value": 15.2, "unit": "%"}, {"measurement": "inhibition at 0.5 µM", "setting": "[3]; vs 0.1 μM capsaicin", "value": 1.19, "unit": "%"}, {"measurement": "inhibition at 1 µM", "setting": "[3]; vs 0.1 μM capsaicin", "value": 36.4, "unit": "%"}, {"measurement": "inhibition at 5 µM", "setting": "[3]; vs 0.1 μM capsaicin", "value": 35.4, "unit": "%"}, {"measurement": "inhibition at 10 µM", "setting": "[3]; vs 0.1 μM capsaicin", "value": 42.6, "unit": "%"}, {"measurement": "Normalized % Activation", "setting": "[6]; Test conc 0.1 μM", "value": 18.12, "unit": "%"}, {"measurement": "Normalized % Activation", "setting": "[6]; Test conc 0.5 μM", "value": 11.95, "unit": "%"}, {"measurement": "Normalized % Activation", "setting": "[6]; Test conc 1 μM", "value": 14.04, "unit": "%"}, {"measurement": "Normalized % Activation", "setting": "[6]; Test conc 5 μM", "value": 12.92, "unit": "%"}, {"measurement": "Normalized % Activation", "setting": "[6]; Test conc 10 μM", "value": 13.67, "unit": "%"}]}
